Legend:
[1] = system: DTH mice; experiment: Delayed hypersensitive response animal model (DTH); assay type: in vivo; details: for thickness difference of swelling on ears: FIG. 1, DTH mice; for weight difference of ear slices: FIG. 2, DTH mice
Protocol: [4] Delayed Hypersensitive Response Animal Model (DTH)
1) The sensitization was induced by topical application of 20 μL of 0.5% (v/v) DNFB in acetone: olive oil (4:1) onto each rear paw of mice on day 0 and 1;
2) Excipient and testing compounds were given by the oral route 1 day before challenge and then once a day for 2 days (days 8-10);
3) The mice were challenged by application of 10 μL of 0.5% (v/v) DNFB on the inner and outer surfaces of the right ear on day 9;
4) The increase in the ear patch weight (8-mm punches) and ear thickness between the left and right ear was measured 30-48 h after challenge.

[2] = system: mice arthritis induced by bovine collagen type II; experiment: Mice arthritis model induced by bovine collagen type II; assay type: in vivo, DBA/1 mice; details: for scorings of the arthritis degree: FIG. 3 and FIG. 4, with and without the compound; for swelling of the mice' joints: oral, p<0.05
[3] = system: T-cell proliferation (Con A); experiment: Lymphocyte proliferation test, T-cell proliferation stimulated with Con A; assay type: cell-based, Balb/c mice; design: concentration or dose not given beside the values; details: concentration without any cytotoxicity; screened at 10, 1 and 0.1 μm
Protocol: (§1) Experimental animals: inbred Balb/c male mice, 6-8 weeks old.
(§2) RPMI-1640 culture solution (Roswell Park Memorial Institure-1640 medium, from GibcoBRL, Life Technologies, USA) with 10% fetal bovine serum (FBS), 100 U/mL penicillin, 100 μg/mL streptomycin, 10 mM HEPES (4-(2-hydroxyethyl)-1-piperazineethane sulfonic acid) and 50 μM 2-ME (2-Mercaptoethanol).
(§3) Stimulant: Concanavalin (ConA), and bacterial Lipopolysaccharide (LPS, from Escherichia Coli 055: B5), diluted with RPMI-1640 culture solution to suitable concentration before using.
(§4) [2] Lymphocyte Proliferation Test
(§5) 1) Mice were killed by cervical dislocation, and their spleens were collected aseptically and prepared into a single cell suspension. The cell concentration was adjusted to 4×10^6/mL with RPMI-1640 medium containing 10% FBS.
(§6) 2) 100 μL cell suspension, 50 μL testing sample solution, 50 μL ConA or LPS solution were added into a 96-well plate, and for the control group, 50 μL medium containing 10% FBS was added. The total volume was 200 μL.
(§7) 3) The cell culture was incubated in 5% CO2 incubator at 37 °C for 48 hours, and 0.5 μCi [^3H]-thymidine (25 μL/well) was added into each well 7-8 hours before the termination of the incubation.
(§8) 4) After the incubation was terminated, the cells were harvested on a glassfiber film with a cell harvestor (HARVESTER96®, TOMTEC), and after scintillation fluid was added, the incorporation of [^3H]-thymidine in the cell DNA was measured with a liquid scintillation counter (MicroBeta Trilux®, PerkinElmer) to indicate the state of cell proliferation.

[4] = system: response lymphocytes in MLR; experiment: Homologous and heterogeneous mixed lymphocyte proliferation reaction (MLR); assay type: cell-based, C57BL/6 and Balb/c mice; details: read-out: EC50, inhibition of proliferation of the response lymphocytes in MLR
Source text: [3] Homologous and Heterogeneous Mixed Lymphocyte Proliferation Reaction (MLR)
1) C57BL/6 and Balb/c mice were killed by cervical dislocation, and their spleens were collected aseptically and levigated into a single cell suspension. After removing the erythrocytes, the cell concentration was adjusted to 6×10^6/mL with RPMI-1640 medium containing 10% FBS.
2) The spleen cells of C57BL/6 mice as the response cells and the spleen cells of Balb/c mice (irradiated with Co60, 3000 rads) as the stimulus cells were mixed in equal volumes.
3) 100 μL cell mixture, 100 μL testing sample were added into a 96-well plate. For the control group, 100 μL medium containing 10% serum was added. And single culture controls of the two kinds of cells were set.
4) The cell cultures were incubated in 5% CO2 incubator at 37 °C for 3, 4 or 5 days. 25 μL ^3H diluent (i.e. […] [^3H]-thymidine) was added one day before the termination of the incubation.
5) After the incubation was terminated, the plate was freezed in a −20[…] refrigerator.
6) The cells were harvested on a glassfiber film with a cell harvestor (HARVESTER96′, TOMTEC), and the incorporation of [^3H]-thymidine in DNA was measured with a liquid scintillation counter (MicroBeta Trilux®, PerkinElmer) to indicate the state of cell proliferation.

[5] = system: B-cell proliferation (LPS); experiment: Lymphocyte proliferation test, B-cell proliferation stimulated with LPS; assay type: cell-based, Balb/c mice; details: concentration without any cytotoxicity; screened at 10, 1 and 0.1 μm
Protocol: as §1, §2, §3, §4, §5, §6, §7, §8

Compound | inhibiting rate to T-cell proliferation (Con A) [3] [%] | inhibiting rate to B-cell proliferation (LPS) [5] [%] | other results
CC1CCC2C(C)C(OCCN)OC3OC4(C)CCC1C32OO4 (stereo not drawn) [Example 1, 2′-amino arteether (β type)] | 65 | 73 | thickness difference of swelling on ears [1]: obviously reduced the swelling degree on ears; weight difference of ear slices [1]: obviously reduced the weight of swelling ears; inhibiting rate of swelling of the ear of mice compared with the control group ([1]; oral, 50 mg/kg, p<0.01): 56.5%; scorings of the arthritis degree [2]: can prevent and cure the mice arthritis induced by bovine collagen type II and inhibit the swelling of the sicked joints; swelling of the mice' joints ([2]; 1 mg/kg): obviously reduce the swelling of the mice' joints; EC50 [4]: 3480 ± 720 nM
CC1CCC2C(C)C(OCC(O)CN)OC3OC4(C)CCC1C32OO4 (stereo not drawn) [Example 2, 3′-amino-2′-hydroxy-artemisinin propyl ether (β type)] | 48 | 48 | –
CNCC(O)COC1OC2OC3(C)CCC4C(C)CCC(C1C)C24OO3 (stereo not drawn) [Example 3, 3′-methylamino-2′-hydroxy-artemisinin propyl ether (β type)] | 47 | 51 | –
CC1CCC2C(C)C(OCC(O)C(N)c3ccccc3)OC3OC4(C)CCC1C32OO4 (stereo not drawn) [Example 8, 3′-phenyl-3′-amino-2′-hydroxy-artemisinin propyl ether (β type)] | 13 | 42 | –
CC1CCC2C(C)C(OCC(O)CN3CCCC3)OC3OC4(C)CCC1C32OO4 (stereo not drawn) [Example 11, 3′-pyrrolidinyl-2′-hydroxy-artemisinin propyl ether (β type)] | 48 | 99 | thickness difference of swelling on ears [1]: obviously reduced the swelling degree on ears; weight difference of ear slices [1]: obviously reduced the weight of swelling ears; inhibiting rate of swelling of the ear of mice compared with the control group ([1]; oral, 100 mg/kg, p<0.01): 50.5%
CC1CCC2C(C)C(OCC(O)CN3CCCCC3)OC3OC4(C)CCC1C32OO4 (stereo not drawn) [Example 12, 3′-piperidyl-2′-hydroxy-artemisinin propyl ether (β type)] | 47 | 47 | –
CC1CCC2C(C)C(OCC(O)CNC(C)(C)C)OC3OC4(C)CCC1C32OO4 (stereo not drawn) [Example 14, 3′-tert-butylamino-2′-hydroxy-artemisinin propyl ether (β type)] | 52 | 81 | thickness difference of swelling on ears [1]: obviously reduced the swelling degree on ears; weight difference of ear slices [1]: obviously reduced the weight of swelling ears; inhibiting rate of swelling of the ear of mice compared with the control group ([1]; oral, 50 mg/kg, p<0.01): 52.2%; scorings of the arthritis degree [2]: can prevent and cure the mice arthritis induced by bovine collagen type II and inhibit the swelling of the sicked joints; swelling of the mice' joints ([2]; 0.5 mg/kg): obviously reduce the swelling of the mice' joints; EC50 [4]: 670 ± 12 nM
CC1CCC2C(C)C(OCC(O)C(c3ccccc3)N3CCCCC3)OC3OC4(C)CCC1C32OO4 (stereo not drawn) [Example 16, 3′-phenyl-3′-piperidyl-2′-hydroxy-artemisinin propyl ether (β type)] | 0 | 51 | –
CC1CCC2C(C)C(OCC(O)C(c3ccccc3)N(C)C)OC3OC4(C)CCC1C32OO4 (stereo not drawn) [Example 17, 3′-phenyl-3′-dimethylamino-2′-hydroxy-artemisinin propyl ether (β type)] | 6 | 24 | –
CC1CCC2C(C)C(OCC(O)C(NC(C)(C)C)c3ccccc3)OC3OC4(C)CCC1C32OO4 (stereo not drawn) [Example 18, 3-phenyl-3′-tert-butylamino-2′-hydroxy-artemisinin propyl ether (β type)] | 9 | 26 | –
cyclosporine A [reference compound] | – | – | inhibiting rate of swelling of the ear of mice compared with the control group ([1]; 5 mg/kg): 40.6%

Source: US8129426B2, “Water-soluble artemisinin derivatives, their preparation methods, the pharmaceutical compositions and the use thereof” (priority 2005, dated 2012)
